Measurements reported in patent US20100016547A1, “Glycosilated Peptide and Medicine Comprising It as an Effective Ingredient” (priority 2005, published 2010).

Assays:
GLP-1 receptor [1] = target: T1, GLP-1 receptor (Homo sapiens, UniProt P43220); assay: Assay for production of cAMP
Procedure: Assay for Production of cAMP
After stirring at room temperature for an hour, the cells were lysed with Triton X-100 (final concentration: 1%).
Quantity of cAMP was determined using cAMP Femtomolar Kit (CIS Bio International). The reaction solution (1 μL) was moved to a new 384-well plate and diluted by adding 9 μL of dilution buffer. Next, each 5 μL of cAMP-XL665 solution and anti-cAMP cryptate solution of the Kit was added, the mixture was incubated at room temperature for an hour, and time-resolved fluorescence was measured using RUBYstar (BMG LABTECH).

GLP-1 receptor [2] = target: T1, GLP-1 receptor
Procedure: After being incubated at room temperature for 2 hours, the solution was filtered through a unifilter 96GF/C plate (Perkin-Elmer) pretreated with 1% polyethylenimine containing 0.5% BSA, washed with 25 mM HEPES buffer solution (pH 7.4) containing 0.5% BSA, and radioactivity remained on the filter was measured by a gamma counter (Top Counter; Perkin-Elmer).

T1 sequence (P43220 24-463, species assumed): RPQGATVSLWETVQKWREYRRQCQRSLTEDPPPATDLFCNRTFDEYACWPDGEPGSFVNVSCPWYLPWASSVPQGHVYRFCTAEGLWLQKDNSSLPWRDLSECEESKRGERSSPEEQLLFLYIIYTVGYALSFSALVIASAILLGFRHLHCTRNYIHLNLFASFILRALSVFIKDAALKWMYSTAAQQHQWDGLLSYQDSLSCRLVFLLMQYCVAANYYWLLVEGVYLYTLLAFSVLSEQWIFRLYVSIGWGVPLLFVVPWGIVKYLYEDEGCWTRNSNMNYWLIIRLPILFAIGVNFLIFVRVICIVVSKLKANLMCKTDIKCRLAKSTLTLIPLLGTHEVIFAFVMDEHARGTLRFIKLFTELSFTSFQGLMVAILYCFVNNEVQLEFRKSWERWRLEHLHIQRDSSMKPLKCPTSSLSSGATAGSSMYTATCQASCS

| SMILES | EC50 (GLP-1 receptor [1]) [nM] | IC50 (GLP-1 receptor [2]) [nM] |
| --- | --- | --- |
| CC[C@H](C)[C@H](NC(=O)[C@H](Cc1ccccc1)NC(=O)[C@H](CCC(=O)O)NC(=O)[C@H](CCCCN)NC(=O)[C@H](C)NC(=O)[C@H](C)NC(=O)[C@H](CCC(N)=O)NC(=O)CNC(=O)[C@H](CCC(=O)O)NC(=O)[C@H](CC(C)C)NC(=O)[C@H](Cc1ccc(O)cc1)NC(=O)[C@H](CO)NC(=O)[C@H](CO)NC(=O)[C@@H](NC(=O)[C@H](CC(=O)O)NC(=O)[C@H](CO)NC(=O)[C@@H](NC(=O)[C@H](Cc1ccccc1)NC(=O)[C@@H](NC(=O)CNC(=O)[C@H](CCC(=O)O)NC(=O)[C@H](C)NC(=O)[C@@H](N)Cc1c[nH]cn1)[C@@H](C)O)[C@@H](C)O)C(C)C)C(=O)N[C@@H](C)C(=O)N[C@@H](Cc1c[nH]c2ccccc12)C(=O)N[C@@H](CC(C)C)C(=O)N[C@H](C(=O)N[C@@H](CSCC(=O)N[C@@H](CCC(=O)N[C@@H](CC(=O)N[C@@H]1O[C@H](CO)[C@@H](O[C@@H]2O[C@H](CO)[C@@H](O[C@@H]3O[C@H](CO[C@H]4O[C@H](CO)[C@@H](O)[C@H](O)[C@@H]4O[C@@H]4O[C@H](CO)[C@@H](O[C@@H]5O[C@H](CO[C@]6(C(=O)O)C[C@H](O)[C@@H](NC(C)=O)[C@H]([C@H](O)[C@H](O)CO)O6)[C@H](O)[C@H](O)[C@H]5O)[C@H](O)[C@H]4NC(C)=O)[C@@H](O)[C@H](O[C@H]4O[C@H](CO)[C@@H](O)[C@H](O)[C@@H]4O[C@@H]4O[C@H](CO)[C@@H](O[C@@H]5O[C@H](CO[C@]6(C(=O)O)C[C@H](O)[C@@H](NC(C)=O)[C@H]([C@H](O)[C@H](O)CO)O6)[C@H](O)[C@H](O)[C@H]5O)[C@H](O)[C@H]4NC(C)=O)[C@@H]3O)[C@H](O)[C@H]2NC(C)=O)[C@H](O)[C@H]1NC(C)=O)C(=O)O)C(=O)N[C@@H](CC(=O)N[C@@H]1O[C@H](CO)[C@@H](O[C@@H]2O[C@H](CO)[C@@H](O[C@@H]3O[C@H](CO[C@H]4O[C@H](CO)[C@@H](O)[C@H](O)[C@@H]4O[C@@H]4O[C@H](CO)[C@@H](O[C@@H]5O[C@H](CO[C@]6(C(=O)O)C[C@H](O)[C@@H](NC(C)=O)[C@H]([C@H](O)[C@H](O)CO)O6)[C@H](O)[C@H](O)[C@H]5O)[C@H](O)[C@H]4NC(C)=O)[C@@H](O)[C@H](O[C@H]4O[C@H](CO)[C@@H](O)[C@H](O)[C@@H]4O[C@@H]4O[C@H](CO)[C@@H](O[C@@H]5O[C@H](CO[C@]6(C(=O)O)C[C@H](O)[C@@H](NC(C)=O)[C@H]([C@H](O)[C@H](O)CO)O6)[C@H](O)[C@H](O)[C@H]5O)[C@H](O)[C@H]4NC(C)=O)[C@@H]3O)[C@H](O)[C@H]2NC(C)=O)[C@H](O)[C@H]1NC(C)=O)C(=O)O)C(=O)NCC(=O)N[C@@H](CCCNC(=N)N)C(N)=O)C(C)C [GL34CE2] | 3.4 | 20 |
| CC[C@H](C)[C@H](NC(=O)[C@H](Cc1ccccc1)NC(=O)[C@H](CCC(=O)O)NC(=O)[C@H](CCCCN)NC(=O)[C@H](C)NC(=O)[C@H](C)NC(=O)[C@H](CCC(N)=O)NC(=O)CNC(=O)[C@H](CCC(=O)O)NC(=O)[C@H](CC(C)C)NC(=O)[C@H](Cc1ccc(O)cc1)NC(=O)[C@H](CO)NC(=O)[C@H](CO)NC(=O)[C@@H](NC(=O)[C@H](CC(=O)O)NC(=O)[C@H](CO)NC(=O)[C@@H](NC(=O)[C@H](Cc1ccccc1)NC(=O)[C@@H](NC(=O)CNC(=O)[C@H](CCC(=O)O)NC(=O)[C@H](C)NC(=O)[C@@H](N)Cc1c[nH]cn1)[C@@H](C)O)[C@@H](C)O)C(C)C)C(=O)N[C@@H](C)C(=O)N[C@@H](Cc1c[nH]c2ccccc12)C(=O)N[C@@H](CC(C)C)C(=O)N[C@H](C(=O)N[C@@H](CC(=O)N[C@@H]1O[C@H](CO)[C@@H](O)[C@H](O)[C@H]1NC(C)=O)C(=O)NCC(=O)N[C@@H](CCCNC(=N)N)C(=O)N[C@@H](CC(=O)N[C@@H]1O[C@H](CO)[C@@H](O)[C@H](O)[C@H]1NC(C)=O)C(N)=O)C(C)C [GL3437NG] | 0.11 | 0.9 |
| CC[C@H](C)[C@H](NC(=O)[C@H](Cc1ccccc1)NC(=O)[C@H](CCC(=O)O)NC(=O)[C@H](CC(=O)N[C@@H]1O[C@H](CO)[C@@H](O[C@@H]2O[C@H](CO[C@]3(C(=O)O)C[C@H](O)[C@@H](NC(C)=O)[C@H]([C@H](O)[C@H](O)CO)O3)[C@H](O)[C@H](O)[C@H]2O)[C@H](O)[C@H]1NC(C)=O)NC(=O)[C@H](C)NC(=O)[C@H](C)NC(=O)[C@H](CCC(N)=O)NC(=O)CNC(=O)[C@H](CCC(=O)O)NC(=O)[C@H](CC(C)C)NC(=O)[C@H](Cc1ccc(O)cc1)NC(=O)[C@H](CO)NC(=O)[C@H](CO)NC(=O)[C@@H](NC(=O)[C@H](CC(=O)O)NC(=O)[C@H](CO)NC(=O)[C@@H](NC(=O)[C@H](Cc1ccccc1)NC(=O)[C@@H](NC(=O)CNC(=O)[C@H](CCC(=O)O)NC(=O)[C@H](C)NC(=O)[C@@H](N)Cc1c[nH]cn1)[C@@H](C)O)[C@@H](C)O)C(C)C)C(=O)N[C@@H](C)C(=O)N[C@@H](Cc1c[nH]c2ccccc12)C(=O)N[C@@H](CC(C)C)C(=O)N[C@H](C(=O)N[C@@H](CCCCN)C(=O)NCC(=O)N[C@@H](CCCNC(=N)N)C(N)=O)C(C)C [GL26NS6] | 0.92 | 2.9 |
| CC[C@H](C)[C@H](NC(=O)[C@H](Cc1ccccc1)NC(=O)[C@H](CCC(=O)O)NC(=O)[C@H](CC(=O)N[C@@H]1O[C@H](CO)[C@@H](O[C@@H]2O[C@H](CO)[C@@H](O[C@@H]3O[C@H](CO[C@H]4O[C@H](CO)[C@@H](O)[C@H](O)[C@@H]4O[C@@H]4O[C@H](CO)[C@@H](O[C@@H]5O[C@H](CO[C@]6(C(=O)O)C[C@H](O)[C@@H](NC(C)=O)[C@H]([C@H](O)[C@H](O)CO)O6)[C@H](O)[C@H](O)[C@H]5O)[C@H](O)[C@H]4NC(C)=O)[C@@H](O)[C@H](O[C@H]4O[C@H](CO)[C@@H](O)[C@H](O)[C@@H]4O[C@@H]4O[C@H](CO)[C@@H](O[C@@H]5O[C@H](CO[C@]6(C(=O)O)C[C@H](O)[C@@H](NC(C)=O)[C@H]([C@H](O)[C@H](O)CO)O6)[C@H](O)[C@H](O)[C@H]5O)[C@H](O)[C@H]4NC(C)=O)[C@@H]3O)[C@H](O)[C@H]2NC(C)=O)[C@H](O)[C@H]1NC(C)=O)NC(=O)[C@H](C)NC(=O)[C@H](C)NC(=O)[C@H](CCC(N)=O)NC(=O)CNC(=O)[C@H](CCC(=O)O)NC(=O)[C@H](CC(C)C)NC(=O)[C@H](Cc1ccc(O)cc1)NC(=O)[C@H](CO)NC(=O)[C@H](CO)NC(=O)[C@@H](NC(=O)[C@H](CC(=O)O)NC(=O)[C@H](CO)NC(=O)[C@@H](NC(=O)[C@H](Cc1ccccc1)NC(=O)[C@@H](NC(=O)CNC(=O)[C@H](CCC(=O)O)NC(=O)[C@H](C)NC(=O)[C@@H](N)Cc1c[nH]cn1)[C@@H](C)O)[C@@H](C)O)C(C)C)C(=O)N[C@@H](C)C(=O)N[C@@H](Cc1c[nH]c2ccccc12)C(=O)N[C@@H](CC(C)C)C(=O)N[C@H](C(=O)N[C@@H](CCCCN)C(=O)NCC(=O)N[C@@H](CCCNC(=N)N)C(N)=O)C(C)C [GL26NE1] | 0.8 | 11 |
| CC[C@H](C)[C@H](NC(=O)[C@H](Cc1ccccc1)NC(=O)[C@H](CCC(=O)O)NC(=O)[C@H](CCCCN)NC(=O)[C@H](C)NC(=O)[C@H](C)NC(=O)[C@H](CCC(N)=O)NC(=O)CNC(=O)[C@H](CCC(=O)O)NC(=O)[C@H](CC(C)C)NC(=O)[C@H](Cc1ccc(O)cc1)NC(=O)[C@H](CO)NC(=O)[C@H](CO)NC(=O)[C@@H](NC(=O)[C@H](CC(=O)O)NC(=O)[C@H](CO)NC(=O)[C@@H](NC(=O)[C@H](Cc1ccccc1)NC(=O)[C@@H](NC(=O)CNC(=O)[C@H](CCC(=O)O)NC(=O)[C@H](C)NC(=O)[C@@H](N)Cc1c[nH]cn1)[C@@H](C)O)[C@@H](C)O)C(C)C)C(=O)N[C@@H](C)C(=O)N[C@@H](Cc1c[nH]c2ccccc12)C(=O)N[C@@H](CC(C)C)C(=O)N[C@H](C(=O)N[C@@H](CC(N)=O)C(=O)NCC(=O)N[C@@H](CCCNC(=N)N)C(N)=O)C(C)C [GL34N] | 0.11 | 1 |
| CC[C@H](C)[C@H](NC(=O)[C@H](Cc1ccccc1)NC(=O)[C@H](CCC(=O)O)NC(=O)[C@H](CCCCN)NC(=O)[C@H](C)NC(=O)[C@H](C)NC(=O)[C@H](CCC(N)=O)NC(=O)CNC(=O)[C@H](CCC(=O)O)NC(=O)[C@H](CC(C)C)NC(=O)[C@H](Cc1ccc(O)cc1)NC(=O)[C@H](CO)NC(=O)[C@H](CO)NC(=O)[C@@H](NC(=O)[C@H](CC(=O)O)NC(=O)[C@H](CO)NC(=O)[C@@H](NC(=O)[C@H](Cc1ccccc1)NC(=O)[C@@H](NC(=O)CNC(=O)[C@H](CCC(=O)O)NC(=O)[C@H](C)NC(=O)[C@@H](N)Cc1c[nH]cn1)[C@@H](C)O)[C@@H](C)O)C(C)C)C(=O)N[C@@H](C)C(=O)N[C@@H](Cc1c[nH]c2ccccc12)C(=O)N[C@@H](CC(C)C)C(=O)N[C@H](C(=O)N[C@@H](CSCC(=O)N[C@@H](CC(=O)N[C@@H]1O[C@H](CO)[C@@H](O[C@@H]2O[C@H](CO)[C@@H](O[C@@H]3O[C@H](CO[C@H]4O[C@H](CO)[C@@H](O)[C@H](O)[C@@H]4O[C@@H]4O[C@H](CO)[C@@H](O[C@@H]5O[C@H](CO[C@]6(C(=O)O)C[C@H](O)[C@@H](NC(C)=O)[C@H]([C@H](O)[C@H](O)CO)O6)[C@H](O)[C@H](O)[C@H]5O)[C@H](O)[C@H]4NC(C)=O)[C@@H](O)[C@H](O[C@H]4O[C@H](CO)[C@@H](O)[C@H](O)[C@@H]4O[C@@H]4O[C@H](CO)[C@@H](O[C@@H]5O[C@H](CO[C@]6(C(=O)O)C[C@H](O)[C@@H](NC(C)=O)[C@H]([C@H](O)[C@H](O)CO)O6)[C@H](O)[C@H](O)[C@H]5O)[C@H](O)[C@H]4NC(C)=O)[C@@H]3O)[C@H](O)[C@H]2NC(C)=O)[C@H](O)[C@H]1NC(C)=O)C(=O)O)C(=O)NCC(=O)N[C@@H](CCCNC(=N)N)C(N)=O)C(C)C [GL34CE1] | 0.72 | 3.5 |
